What all share (experiment): NCI tumour cell line growth inhibition, 48 h
For experiment [1], the system named is SF-295 CNS.
The test system of experiment [2] is UACC-62 melanoma.
The subject of experiment [3] is KM12 colon.
For experiment [4], the system named is COLO 205 colon.
Experiment [5] deals with LOX IMVI melanoma.
For experiment [6], the system named is SN12C renal.
In experiment [7] the test system is NCI-H460 lung.
The subject of experiment [8] is OVCAR-4 ovarian.
Experiment [9] deals with NCI-H23 lung.
For experiment [10], the system named is HOP-92 NSCLC.

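Following 48 hours of exposure in 96-well plates, responses at five concentrations were used to interpolate endpoints linearly. At the GI50, growth is halved. TGI marks complete inhibition of growth.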 Where a SMILES comes first, the peptide text is derived from it. The star is where a group is joined. Boc = CC(C)(C)OC(=O)*

With `N#CC(c1ccccc1)c1cccc2ccccc12` (stereo not drawn), the TGI in experiment [1] was over 100 µM; in experiment [2], over 100 µM; in experiment [3], 66 µM; in experiment [4] it was over 100 µM; in [5] it was 50.8 µM; in experiment [6], over 100 µM. The TGI in experiment [7], in [8] and in experiment [9] was over 100 µM in each case.
For the compound `Cc1nc2c(Br)cc(Br)cc2c(=O)n1-c1ccccc1N`, the TGI in experiment [1] is over 100 µM; in [2] it was over 100 µM; in experiment [3] it was over 100 µM; in [4], 44 µM; in [5], over 100 µM; in [6], over 100 µM. In addition, the TGI in experiment [7] and in [8] was over 100 µM in each case.
Consider `C=C(Br)CN(C#N)CC(=C)Br`, for which the TGI in experiment [1], in experiment [2], in [3], in experiment [4], in [5] and in experiment [6] was over 100 µM in each case. Besides, the TGI in [7], in [8] and in [9] was over 100 µM throughout.
As to `COc1cccc(-c2cc(=O)c3cc(C)cnc3[nH]2)c1`, the TGI in [1] is over 100 µM; in experiment [2], over 100 µM; in experiment [4], 1.39 µM; in experiment [5], over 100 µM; in experiment [6] it was over 33.9 µM; in [7], over 100 µM. For the same compound, the TGI in [8] and in experiment [9] was over 100 µM in each case.
Turning to `Cc1nn(-c2ccccc2)c(C)c1/C=N/NC(=O)c1sc(=S)n(-c2ccccc2)c1N`, the TGI was 6.55 µM in experiment [1]; over 100 µM in [2]; over 100 µM in experiment [3]; 3.55 µM in experiment [4]; 5.12 µM in [5]; over 100 µM in [6]. For the same compound, the TGI in [7] is 16.3 µM; in [8], 8.74 µM; in [9], over 100 µM.
Take `CC(NC(=O)C(NC(=O)OC(C)(C)C)C(C)C)C(=O)NCC(=O)O` (stereo not drawn) (Boc-Val-Ala-Gly-OH; configuration not given here): the TGI in [1], in [10], in experiment [2], in experiment [3], in [4] and in [6] was over 100 µM throughout. Also, the TGI in experiment [7] and in experiment [9] was over 100 µM each time.
In the case of `CC(NC(=O)c1ccc(OP(=O)(OCC2=CC(=O)c3ccccc3C2=O)N(C)CCCCCl)cc1)c1ccc(OCC2CCCCC2)c(C(N)=O)c1` (stereo not drawn), the TGI in [1] was determined as 19.2 µM; in [10], 19.6 µM; in [2], 21.4 µM; in experiment [3], 30.3 µM; in [4], 20.6 µM; in experiment [5], 17.6 µM. The TGI in [6] came to 26.2 µM; in experiment [7], 22.9 µM; in experiment [9] it was 10.2 µM.
`NCCCCCCNc1cc(-c2cccc(OC(F)(F)F)c2)nc2ccc(N3CCCC3)cc12`: the results for the GI50 in [1], in experiment [3] and in experiment [8] were 1.75 µM, 1.79 µM and 1.59 µM, respectively. Besides, the TGI in experiment [1] is 3.15 µM; in experiment [3], 3.38 µM; in experiment [8], 3.17 µM.
Turning to `O=S1(=O)c2ccccc2N2CCCc3cc(Cl)cc1c32`, the TGI was 95 µM in [1]; over 100 µM in experiment [2]; over 100 µM in experiment [3]; over 100 µM in experiment [4]; over 100 µM in experiment [5]; over 100 µM in [6]. Also, the TGI in [7] and in experiment [8] was over 100 µM each time.
As to `CC1(C)CCOC(=O)C(Cl)CC1Cl` (stereo not drawn), the TGI in experiment [1], in experiment [2], in experiment [3], in experiment [4], in [5] and in experiment [6] was over 100 µM each time. For the same compound, the TGI in [7], in experiment [8] and in experiment [9] was over 100 µM each time.
Consider `O=C(c1cccs1)N(C(=O)N1CCC(c2ccccc2)CC1)c1ccccc1`, for which the TGI is over 100 µM in experiment [1]; over 100 µM in experiment [2]; 50.9 µM in [3]; 72.2 µM in experiment [4]; over 100 µM in [5]; over 100 µM in experiment [6]. In addition, the TGI in experiment [7] and in [9] was over 100 µM throughout.
In the case of `CN(C)c1ccc(/C=N/NC2=N/C(=C\c3ccco3)C(=O)N2)cc1`, the TGI in [1], in [10], in [2], in [3], in experiment [4] and in experiment [5] was over 100 µM each time. Besides, the TGI in experiment [6], in [7] and in experiment [9] was over 100 µM each time.
As for `C=C[C@H]1CN2CC[C@H]1C[C@@H]2[C@@H](O)c1ccnc2ccccc12`, the TGI in experiment [1], in experiment [2], in [3], in [4], in experiment [5] and in experiment [6] was over 100 µM in each case. The TGI in experiment [7], in experiment [8] and in experiment [9] was over 100 µM each time.
As for `CC(Nc1cc(Cl)cc(Cl)c1)c1ccncc1` (stereo not drawn), the TGI was 43.4 µM in [1]; 29.8 µM in experiment [4]; 24.8 µM in experiment [5]; 73.3 µM in experiment [7]; over 100 µM in [8]; 71.1 µM in experiment [9].
For `Nc1nc(N)c2ncn(CC(CO)CC(c3ccccc3)P(=O)(O)O)c2n1` (stereo not drawn), the TGI in [1], in experiment [10], in experiment [2], in experiment [3], in experiment [4] and in experiment [5] was over 100 µM each time. Besides, the TGI in experiment [6], in experiment [7] and in [9] was over 100 µM throughout.
`O=C1/C(=C/c2cccs2)N=C(c2ccccc2)N1C1Nc2cc3c(cc2S1)NC(N1C(=O)/C(=C/c2cccs2)N=C1c1ccccc1)S3` (stereo not drawn): the TGI in [1] was over 100 µM; in [10], over 100 µM; in experiment [3], over 100 µM; in experiment [5], 33.7 µM; in experiment [7], over 100 µM; in [8] it was 96.9 µM. In addition, the TGI in experiment [9] was determined as 43.6 µM.
For the compound `CC(=O)O[C@H]1/C(=C/c2ccc(N(C)C)cc2)C[C@H]2[C@@H]3CC=C4C[C@@H](N5CCCC5)CC[C@]4(C)[C@H]3CC[C@]12C`, the TGI in experiment [1], in experiment [10], in experiment [2], in [4], in experiment [5] and in experiment [6] was over 100 µM throughout. Besides, the TGI in experiment [7] and in [9] was over 100 µM each time.
Regarding `CCCCCCCCCC[C@@H](O)[C@@H]1CC[C@@H]([C@@H]2CC[C@@H]([C@@H](O)CCCCCCCCCCC(O)CC3=CC(C)OC3=O)O2)O1` (stereo partly drawn), the TGI in [1], in experiment [2], in experiment [3], in [4], in experiment [5] and in experiment [6] was over 10 µM in each case. Further, the TGI in [7] and in experiment [8] was over 10 µM each time.
Consider `COc1ccc(-c2cn3ccnc3c(-c3ccc4ncn(C5CCCCC5)c4c3)n2)cc1`, for which the GI50 in experiment [10] was 1.18 µM; in experiment [2], 0.434 µM; in experiment [3] it was 1.35 µM; in [4], 2.22 µM; in experiment [5], 0.74 µM; in [6], 2.11 µM. Besides, the results for the GI50 in experiment [7] and in experiment [9] were 0.622 µM and 2.11 µM, respectively. Further, the TGI is over 100 µM in experiment [10]; over 100 µM in [2]; over 100 µM in experiment [3]; 14.4 µM in experiment [4]; over 100 µM in experiment [5]; over 100 µM in experiment [6]. Moreover, the TGI in experiment [7] and in experiment [9] was over 100 µM each time.
For `COc1nc2c(c(=O)n1C)N[C@@H]1[C@@H](O)[C@H](O)CO[C@@H]1N2`, the TGI in experiment [1], in experiment [2], in experiment [3], in experiment [4], in experiment [5] and in experiment [6] was over 100 µM in each case. For the same compound, the TGI in [7] and in [8] was over 100 µM each time.
Regarding `CCN(CC)CCNc1ccc(N=Nc2ccc(S(N)(=O)=O)cc2)c2ccccc12`, the TGI is 15.1 µM in experiment [1]; 35.9 µM in experiment [10]; 25.7 µM in [2]; 39 µM in [3]; over 100 µM in experiment [4]; 81 µM in experiment [6]. Moreover, the TGI was over 100 µM in experiment [7], 30.9 µM in experiment [8] and 50.7 µM in [9].
For `COc1ccc(CN=CN/C(C#N)=C(\N)C#N)cc1OC`, the TGI in [1], in experiment [2], in experiment [3], in experiment [4], in experiment [5] and in [6] was over 100 µM in each case. In addition, the TGI in [7], in experiment [8] and in [9] was over 100 µM each time.
Regarding `CC1(C)C2CCC1C(=O)C(C=O)C2` (stereo not drawn), the TGI in experiment [1], in experiment [2], in experiment [3], in experiment [4], in experiment [5] and in experiment [6] was over 100 µM throughout. Also, the TGI in experiment [7] and in [9] was over 100 µM in each case.
Regarding `Fc1cccc2nc(-c3ccccc3)cc(OCc3ccccc3)c12`, the TGI in [1], in experiment [2], in experiment [3], in [4], in experiment [5] and in [6] was over 100 µM in each case. In addition, the TGI in experiment [7], in experiment [8] and in [9] was over 100 µM throughout.
In the case of `O=C1NC(N2CCOCC2)=N/C1=C\c1ccccc1O`, the TGI in [1], in experiment [10], in experiment [3], in [4], in experiment [5] and in [6] was over 100 µM in each case. For the same compound, the TGI in experiment [8] and in experiment [9] was over 100 µM in each case.
With `Cc1ccc2[nH]c(=O)c(-c3cnc(=O)[nH]n3)c(O)c2c1`, the TGI in experiment [1], in experiment [2], in [3], in experiment [4], in experiment [5] and in experiment [6] was over 100 µM throughout. The TGI in [7], in experiment [8] and in experiment [9] was over 100 µM throughout.
Take `CCCCNC(=S)Nc1nc(C(=O)NNS(=O)(=O)c2ccccc2)cs1`: the TGI in experiment [1] is over 100 µM; in experiment [10], over 100 µM; in experiment [2], 59.2 µM; in [3], over 100 µM; in experiment [4] it was 38.6 µM; in experiment [5], 39.2 µM. The results for the TGI in [6] and in [9] were 62.5 µM and over 100 µM, respectively.
On to `Clc1ccc(OCc2nnc(CCCCCCCCc3nnc(COc4ccc(Cl)cc4Cl)o3)o2)c(Cl)c1`, for which the TGI in experiment [1], in experiment [10], in [2], in [3], in experiment [4] and in experiment [6] was over 100 µM throughout. For the same compound, the TGI in experiment [7], in [8] and in [9] was over 100 µM throughout.
Turning to `COc1ccc(-c2cc(-c3ccc(Nc4ccnc5cc(Cl)ccc45)cc3)nc(N)c2C#N)c2ccccc12`, the TGI in experiment [1], in experiment [2], in experiment [3], in [4], in experiment [5] and in experiment [6] was over 100 µM in each case. Besides, the TGI in [7], in [8] and in experiment [9] was over 100 µM each time.
As for `S=C1CC(c2ccc(Cl)cc2)Sc2ccccc2N1` (stereo not drawn), the TGI in [1], in experiment [2], in experiment [3], in [4], in experiment [5] and in experiment [6] was over 100 µM in each case. In addition, the TGI in experiment [7], in [8] and in [9] was over 100 µM in each case.

The record behind these values is PubChem BioAssay (NCI).
